This passage reports IC50 results from patent publication US20120115869A1, “TETRAZOLE DERIVATIVES” (MERCK SERONO S.A., priority 2009, published 2012).

What is called IC50 is the concentration that gives 50% inhibition. A lower IC50 goes with higher potency.

The target of this assay is T1, CRTH2 (DP2) (Homo sapiens, UniProt Q9Y5Y4).
T1 construct: host or cells: CHO cells
T1 sequence (Q9Y5Y4 1-395): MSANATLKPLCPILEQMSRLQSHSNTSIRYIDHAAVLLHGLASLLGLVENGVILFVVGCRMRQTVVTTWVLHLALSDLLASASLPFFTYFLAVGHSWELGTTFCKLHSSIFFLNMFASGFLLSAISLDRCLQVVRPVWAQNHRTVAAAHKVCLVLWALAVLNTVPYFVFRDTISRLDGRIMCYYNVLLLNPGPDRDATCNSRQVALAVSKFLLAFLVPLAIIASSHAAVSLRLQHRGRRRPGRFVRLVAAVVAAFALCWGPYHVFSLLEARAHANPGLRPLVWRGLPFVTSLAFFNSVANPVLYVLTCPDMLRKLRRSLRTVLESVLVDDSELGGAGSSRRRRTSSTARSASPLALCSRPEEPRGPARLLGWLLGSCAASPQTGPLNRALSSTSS
Nature of the assay: Radioligand binding Scintillation Proximity Assay ([3H]PGD2, hCRTH2-CHO cell membranes). To be noted: 1.5 nM [3H]PGD2, hCRTH2-CHO cell membranes, SPA. Here is the method:
Adherent CHO cells expressing hCRTH2 (Euroscreen, Belgium) were cultured in 225 cm^2 cell culture flasks (Corning, USA) in 30 ml of medium. After two rinses of phosphate buffered saline (PBS), cells were harvested in 10 ml of PBS containing 1 mM EDTA, centrifuged at 500×g for 5 min at 4° C. and frozen at −80° C. The pellet was re-suspended in 50 mM Tris-HCl, pH 7.4, 2 mM EDTA, 250 mM Sucrose, containing protease inhibitor cocktail tablets, (Complete EDTA-free, Roche, Germany) and incubated 30 min at 4° C. Cells were disrupted by nitrogen cavitation (Parr Instruments, USA) at 4° C. (800 p.s.i. for 30 min), and centrifuged at 500×g for 10 min at 4° C. Pellet containing nuclei and cellular debris was discarded and supernatant was centrifuged 60 min at 4° C. at 45000×g. Membrane pellet was re-suspended in storage buffer (10 mM HEPES/KOH pH 7.4, 1 mM EDTA, 250 mM sucrose, protease inhibitor cocktail tablets) using Dounce homogenization and frozen in liquid nitrogen, and stored at 80° C.
Non-specific binding was determined in the presence of 10 μM PGD2 (Cayman, USA). Competing Compounds of Formula (I) were diluted in dimethylsulphoxide so that the total volume of dimethylsulfoxide was kept constant at 1% dimethylsulphoxide (Me2SO). Serial dilutions of […] were prepared and 10 μl each of the compounds of Formula (I) stock solutions were added to the binding assay reagents and incubated for 90 min with agitation at room temperature.
(SPA uses beads or plates that emit light when radiolabelled molecules are held near them.)
Take `CCC(=O)N(Cc1ccc(-c2cccc(S(C)(=O)=O)c2)cc1)c1cc(F)cc(-c2nnn[nH]2)c1` [Example 87, N-[3-fluoro-5-(1H-tetrazol-5-yl)phenyl]-N-{[3′-(methylsulfonyl)biphenyl-4-yl]methyl}propanamide]: the IC50 came to 185 nM.
`CCC(=O)N(Cc1ccncc1)c1cccc(-c2nnn[nH]2)c1` [Example 52, N-(pyridin-4-ylmethyl)-N-[3-(1H-tetrazol-5-yl)phenyl]propanamide] showed a half-maximal inhibitory concentration (IC50) of 6680 nM.
The compound `CCC(=O)N(Cc1cccs1)c1cccc(-c2nnn[nH]2)c1` [Example 17, N-[3-(1H-tetrazol-5-yl)phenyl]-N-(2-thienylmethyl)propanamide] showed a concentration for half-maximal inhibition (IC50) of 1590 nM.
Then `Cc1cc(C(=O)N(Cc2ccc(S(C)(=O)=O)cc2)c2cc(F)cc(-c3nnn[nH]3)c2)n(C)n1` [Example 110, N-[3-fluoro-5-(1H-tetrazol-5-yl)phenyl]-1,3-dimethyl-N-[4-(methylsulfonyl)benzyl]-1H-pyrazole-5-carboxamide], with 56 nM.
Then `CCCCC(=O)N(Cc1ccc2c(c1)OCCO2)c1cc(-c2nnn[nH]2)ccc1F` [Example 15, N-(2,3-dihydro-1,4-benzodioxin-6-ylmethyl)-N-[2-fluoro-5-(1H-tetrazol-5-yl)phenyl]pentanamide], with 4.2 nM.
`CCC(=O)N(Cc1cccnc1)c1cccc(-c2nnn[nH]2)c1` [Example 51, N-(pyridin-3-ylmethyl)-N-[3-(1H-tetrazol-5-yl)phenyl]propanamide] yielded an IC50 of 6750 nM.
Turning to `CCC(=O)N(Cc1cccc(-c2cccnc2)c1)c1cc(F)cc(-c2nnn[nH]2)c1` [Example 81, N-[3-fluoro-5-(1H-tetrazol-5-yl)phenyl]-N-(3-pyridin-3-ylbenzyl)propanamide], the half-inhibitory concentration (IC50) stood at 34 nM.
`CCC(=O)N(Cc1cccc(-c2c(C)noc2C)c1)c1cc(F)cc(-c2nnn[nH]2)c1` [Example 85, N-[3-(3,5-dimethylisoxazol-4-yl)benzyl]-N-[3-fluoro-5-(1H-tetrazol-5-yl)phenyl]propanamide] came in with a 50% inhibitory concentration (IC50) of 19 nM.
For the compound `CS(=O)(=O)c1ccc(CN(C(=O)C2CCOCC2)c2cc(F)cc(-c3nnn[nH]3)c2)cc1` [Example 118, N-[3-fluoro-5-(1H-tetrazol-5-yl)phenyl]-N-[4-(methylsulfonyl)benzyl]tetrahydro-2H-pyran-4-carboxamide], the IC50 turned out to be 32 nM.
The figure for `CCC(=O)N(Cc1ccc(-c2c(C)noc2C)cc1)c1cccc(-c2nnn[nH]2)c1` [Example 71, N-[4-(3,5-dimethylisoxazol-4-yl)benzyl]-N-[3-(1H-tetrazol-5-yl)phenyl]propanamide] is 182 nM.
Consider `CCCCC(=O)N(Cc1ccc(OC(F)(F)F)cc1)c1cc(F)cc(-c2nnn[nH]2)c1` [Example 35, N-[3-fluoro-5-(1H-tetrazol-5-yl)phenyl]-N-[4-(trifluoromethoxy)benzyl]pentanamide], for which the half-maximal inhibitory concentration (IC50) turned out to be 8.9 nM.
In turn, `CCC(=O)N(Cc1ccc([S+]([O-])C(F)(F)F)cc1)c1cc(F)cc(-c2nnn[nH]2)c1` (stereo not shown) [Example 113, N-[3-fluoro-5-(1H-tetrazol-5-yl)phenyl]-N-{4-[(trifluoromethyl)sulfinyl]benzyl}propanamide] came in with an IC50 of 3.5 nM.
On to `CCC(=O)N(Cc1ccc(-c2ccccc2OC)cc1)c1cc(F)cc(-c2nnn[nH]2)c1` [Example 99, N-[3-fluoro-5-(1H-tetrazol-5-yl)phenyl]-N-[(2′-methoxybiphenyl-4-yl)methyl]propanamide], for which the 50% inhibitory concentration (IC50) was 13 nM.
`CCOCC(=O)N(Cc1ccc(OC(F)(F)F)cc1)c1cc(Cl)cc(-c2nnn[nH]2)c1` [Example 67, N-[3-chloro-5-(1H-tetrazol-5-yl)phenyl]-2-ethoxy-N-[4-(trifluoromethoxy)benzyl]acetamide] returned a 50% inhibitory concentration (IC50) of 16 nM.
`CCC(=O)N(Cc1cccc(C#CCOC)c1)c1cccc(-c2nnn[nH]2)c1` [Example 47, N-[3-(3-methoxyprop-1-yn-1-yl)benzyl]-N-[3-(1H-tetrazol-5-yl)phenyl]propanamide] yielded an IC50 of 1140 nM.
Consider `CCC(=O)N(Cc1ccc(-c2cn[nH]c2)cc1)c1cccc(-c2nnn[nH]2)c1` [Example 70, N-[4-(1H-pyrazol-4-yl)benzyl]-N-[3-(1H-tetrazol-5-yl)phenyl]propanamide], for which the IC50 turned out to be 455 nM.
`CCC(=O)N(Cc1c(-c2ccccc2)noc1C)c1cccc(-c2nnn[nH]2)c1` [Example 23, N-[(5-methyl-3-phenylisoxazol-4-yl)methyl]-N-[3-(1H-tetrazol-5-yl)phenyl]propanamide] registered a 50% inhibitory concentration (IC50) of 2960 nM.
`CCCC(=O)N(Cc1ccc2c(c1)OCCO2)c1cccc(-c2nnn[nH]2)c1` [Example 19, N-(2,3-dihydro-1,4-benzodioxin-6-ylmethyl)-N-[3-(1H-tetrazol-5-yl)phenyl]butanamide] showed an IC50 of 15 nM.
In the case of `CCC(=O)N(Cc1ccc(-c2cnoc2)cc1)c1cc(F)cc(-c2nnn[nH]2)c1` [Example 111, N-[3-fluoro-5-(1H-tetrazol-5-yl)phenyl]-N-(4-isoxazol-4-ylbenzyl)propanamide], the IC50 came to 113 nM.
`CCC(=O)N(Cc1ccc2ncccc2c1)c1cccc(-c2nnn[nH]2)c1` [Example 72, N-(quinolin-6-ylmethyl)-N-[3-(1H-tetrazol-5-yl)phenyl]propanamide] registered a concentration for half-maximal inhibition (IC50) of 1110 nM.
As for `CCC(=O)N(Cc1nc2ccccc2s1)c1cccc(-c2nnn[nH]2)c1` [Example 43, N-(1,3-benzothiazol-2-ylmethyl)-N-[3-(1H-tetrazol-5-yl)phenyl]propanamide], the 50% inhibitory concentration (IC50) was found to be 663 nM.
Then `CCC(=O)N(Cc1ccsc1)c1cccc(-c2nnn[nH]2)c1` [Example 18, N-[3-(1H-tetrazol-5-yl)phenyl]-N-(3-thienylmethyl)propanamide], with 2100 nM; and `CS(=O)(=O)c1ccc(CN(C(=O)c2ccncc2)c2cc(F)cc(-c3nnn[nH]3)c2)cc1` [Example 106, N-[3-fluoro-5-(1H-tetrazol-5-yl)phenyl]-N-[4-(methylsulfonyl)benzyl]isonicotinamide], with 20 nM; and `CCC(=O)N(Cc1cccc(-c2ccn[nH]2)c1)c1cc(F)cc(-c2nnn[nH]2)c1` [Example 115, N-[3-fluoro-5-(1H-tetrazol-5-yl)phenyl]-N-[3-(1H-pyrazol-5-yl)benzyl]propanamide], with 30 nM.
`CCC(=O)N(Cc1ccc(-c2sc(C)nc2C)cc1)c1cc(F)cc(-c2nnn[nH]2)c1` [Example 119, N-[4-(2,4-dimethyl-1,3-thiazol-5-yl)benzyl]-N-[3-fluoro-5-(1H-tetrazol-5-yl)phenyl]propanamide] registered an IC50 of 5.2 nM.
Turning to `CCC(=O)N(Cc1ccc2c(c1)OC(F)(F)O2)c1cc(Cl)cc(-c2nnn[nH]2)c1` [Example 103, N-[3-chloro-5-(1H-tetrazol-5-yl)phenyl]-N-[(2,2-difluoro-1,3-benzodioxol-5-yl)methyl]propanamide], the IC50 was found to be 13 nM.
Compound `CCC(=O)N(Cc1ccc(-c2ccncc2)cc1)c1cc(F)cc(-c2nnn[nH]2)c1` [Example 89, N-[3-fluoro-5-(1H-tetrazol-5-yl)phenyl]-N-(4-pyridin-4-ylbenzyl)propanamide] gave an IC50 of 57 nM.
Then `CCC(=O)N(Cc1ccc(-c2cccc(S(=O)(=O)N(C)C)c2)cc1)c1cc(F)cc(-c2nnn[nH]2)c1` [Example 93, N-({3′-[(dimethylamino)sulfonyl]biphenyl-4-yl}methyl)-N-[3-fluoro-5-(1H-tetrazol-5-yl)phenyl]propanamide], with 125 nM.
